Values of other authors, collected in patent US20160317442A1, “Nanosomal preparation of the complex formed by quercetin (or another flavonol, flavone or a derivative thereof) and 2-hydroxypropyl-beta-cyclodextrin for intravenous use in cerebral pathological conditions” (priority 2013, published 2016).

Conditions: aqueous preparations

For O=c1c(O)c(-c2ccc(O)c(O)c2)oc2cc(O)cc(O)c12 [quercetin], the “detection of quercetin in the brain” value is listed as “not detected”.
